Experimental data taken from patent publication US20090143423A1, “SOLID DISPERSION PRODUCT CONTAINING N-ARYL UREA-BASED COMPOUND” (ABBOTT GMBH & CO. KG, priority 2007, published 2009).

Legend:
[1] = Plasma concentration following multiple oral dosing in rat; assay type: in vivo, Sprague-Dawley rats; details: for AUC / Cmax / Tmax: mean; for half-life: harmonic mean
Protocol: A study was conducted to explore the ABT-102 plasma concentrations following multiple oral dosing in rat. In this study, a 10, 30 or 100 mg/kg/day oral dose was administered once daily for eight consecutive days. The compound was prepared as a suspension of the spray dried material in water at concentrations appropriate for a 20 ml/kg/day dose volume in each treatment group. The study was conducted in Sprague-Dawley rats (3 male, 3 female per dose group). Animals were permitted free access to food and water throughout the study. Plasma concentrations of parent drug were determined on the first (Day 1) and last (Day 8) of dosing.

[2] = Previously conducted human pharmacokinetics of ABT-102; assay type: in vivo; details: lipid-liquid formulation
From the text: However, it is anticipated that the current spray dried formulation of the invention also achieves similar pharmacokinetic profile in humans.

[3] = in vivo; details: rat, po, 100 mg/kg
Protocol: A study was conducted to evaluate effect of aging on the ABT-102 bioavailability obtained from suspensions of the spray dried material. Suspensions were prepared by stirring in water for 15 minutes at room temperature (5 mg/ml concentration). The suspensions were then stored refrigerated until dosing. Suspensions aged for 1, 4 and 7 days were compared to a suspension freshly prepared on the morning of dosing. Each of the aged suspension was evaluated in a group of three rats at a dose of 100 mg/kg (20 ml/kg). All four test formulations were evaluated in the same study. Plasma concentrations of parent drug were determined by HPLC-MS/MS.

[4] = 10 mg/kg/day oral, Day 1, aqueous suspension of spray-dried dispersion of Example 4 (part B)
[5] = 10 mg/kg/day oral, Day 8, aqueous suspension of spray-dried dispersion of Example 4 (part B)
[6] = 30 mg/kg/day oral, Day 1, aqueous suspension of spray-dried dispersion of Example 4 (part B)
[7] = 30 mg/kg/day oral, Day 8, aqueous suspension of spray-dried dispersion of Example 4 (part B)
[8] = 100 mg/kg/day oral, Day 1, aqueous suspension of spray-dried dispersion of Example 4 (part B)
[9] = 100 mg/kg/day oral, Day 8, aqueous suspension of spray-dried dispersion of Example 4 (part B)
[10] = both sexes, Sprague-Dawley, plasma, po, 10 mg/kg/day, 10 mg/kg/day oral, Day 1, aqueous suspension of spray-dried dispersion of Example 4 (part B)
[11] = both sexes, Sprague-Dawley, plasma, po, 10 mg/kg/day, 10 mg/kg/day oral, Day 8, aqueous suspension of spray-dried dispersion of Example 4 (part B)
[12] = both sexes, Sprague-Dawley, plasma, po, 30 mg/kg/day, 30 mg/kg/day oral, Day 1, aqueous suspension of spray-dried dispersion of Example 4 (part B)
[13] = both sexes, Sprague-Dawley, plasma, po, 30 mg/kg/day, 30 mg/kg/day oral, Day 8, aqueous suspension of spray-dried dispersion of Example 4 (part B)
[14] = both sexes, Sprague-Dawley, plasma, po, 100 mg/kg/day, 100 mg/kg/day oral, Day 1, aqueous suspension of spray-dried dispersion of Example 4 (part B)
[15] = both sexes, Sprague-Dawley, plasma, po, 100 mg/kg/day, 100 mg/kg/day oral, Day 8, aqueous suspension of spray-dried dispersion of Example 4 (part B)

AUC/D [1, 4]: 0.918 μg · hr/mL per mg/kg
Cmax/D [1, 4]: 0.073 μg/mL per mg/kg
AUC ([1]; 10 mg/kg/day oral, Day 1, aqueous suspension of spray-dried dispersion of Example 4 (part B), 10 mg/kg/day): 9180 ng·h/mL
AUC/D [1, 5]: 0.725 μg · hr/mL per mg/kg
Cmax/D [1, 5]: 0.060 μg/mL per mg/kg
AUC ([1]; 10 mg/kg/day oral, Day 8, aqueous suspension of spray-dried dispersion of Example 4 (part B), 10 mg/kg/day): 7250 ng·h/mL
AUC/D [1, 6]: 0.741 μg · hr/mL per mg/kg
Cmax/D [1, 6]: 0.046 μg/mL per mg/kg
AUC ([1]; 30 mg/kg/day oral, Day 1, aqueous suspension of spray-dried dispersion of Example 4 (part B), 30 mg/kg/day): 22220 ng·h/mL
AUC/D [1, 7]: 0.498 μg · hr/mL per mg/kg
Cmax/D [1, 7]: 0.044 μg/mL per mg/kg
AUC ([1]; 30 mg/kg/day oral, Day 8, aqueous suspension of spray-dried dispersion of Example 4 (part B), 30 mg/kg/day): 14950 ng·h/mL
AUC/D [1, 8]: 0.326 μg · hr/mL per mg/kg
Cmax/D [1, 8]: 0.021 μg/mL per mg/kg
AUC ([1]; 100 mg/kg/day oral, Day 1, aqueous suspension of spray-dried dispersion of Example 4 (part B), 100 mg/kg/day): 32610 ng·h/mL
AUC/D [1, 9]: 0.362 μg · hr/mL per mg/kg
Cmax/D [1, 9]: 0.026 μg/mL per mg/kg
AUC ([1]; 100 mg/kg/day oral, Day 8, aqueous suspension of spray-dried dispersion of Example 4 (part B), 100 mg/kg/day): 36180 ng·h/mL
half-life [1, 10]: 5.9 h
Cmax [1, 10]: 730 ng/mL
Tmax [1, 10]: 2.3 h
AUC ([1]; both sexes, Sprague-Dawley, plasma, po, 10 mg/kg/day, 10 mg/kg/day oral, Day 1, aqueous suspension of spray-dried dispersion of Example 4 (part B), read-out: AUC): 9200 ng·h/mL
half-life [1, 11]: 5.4 h
Cmax [1, 11]: 600 ng/mL
Tmax [1, 11]: 3.3 h
AUC ([1]; both sexes, Sprague-Dawley, plasma, po, 10 mg/kg/day, 10 mg/kg/day oral, Day 8, aqueous suspension of spray-dried dispersion of Example 4 (part B), read-out: AUC): 7300 ng·h/mL
half-life [1, 12]: 7.8 h
Cmax [1, 12]: 1390 ng/mL
Tmax [1, 12]: 3 h
AUC ([1]; both sexes, Sprague-Dawley, plasma, po, 30 mg/kg/day, 30 mg/kg/day oral, Day 1, aqueous suspension of spray-dried dispersion of Example 4 (part B), read-out: AUC): 22200 ng·h/mL
half-life [1, 13]: 5.3 h
Cmax [1, 13]: 1320 ng/mL
Tmax [1, 13]: 3.3 h
AUC ([1]; both sexes, Sprague-Dawley, plasma, po, 30 mg/kg/day, 30 mg/kg/day oral, Day 8, aqueous suspension of spray-dried dispersion of Example 4 (part B), read-out: AUC): 15000 ng·h/mL
half-life [1, 14]: 6.3 h
Cmax [1, 14]: 2130 ng/mL
Tmax [1, 14]: 5 h
AUC ([1]; both sexes, Sprague-Dawley, plasma, po, 100 mg/kg/day, 100 mg/kg/day oral, Day 1, aqueous suspension of spray-dried dispersion of Example 4 (part B), read-out: AUC): 32600 ng·h/mL
half-life [1, 15]: 5.6 h
Cmax [1, 15]: 2610 ng/mL
Tmax [1, 15]: 4.5 h
AUC ([1]; both sexes, Sprague-Dawley, plasma, po, 100 mg/kg/day, 100 mg/kg/day oral, Day 8, aqueous suspension of spray-dried dispersion of Example 4 (part B), read-out: AUC): 36200 ng·h/mL
pharmacokinetics (Cmax and AUC) versus dose [2]: dose proportional exposures
AUC ([3]; AUC): 12400 ng·h/mL
Cmax ([3]; Cmax): 1160 ng/mL
Tmax ([3]; Tmax): 4.3 h
half-life ([3]; t1/2): 4.4 h
SMILES: CC(C)(C)c1ccc2c(c1)CCC2NC(=O)Nc1cccc2[nH]ncc12 (stereo in doubt) [ABT-102, 1-((R)-5-tert-butyl-indan-1-yl)-3-(1H-indazol-4-yl)-urea]
